Measurements reported in patent US9790169B2, “IDO inhibitors” (BRISTOL-MYERS SQUIBB COMPANY, priority 2015, dated 2017).

Biological target: human IDO1 (Homo sapiens, UniProt P14902)
Assay: Assessment of human IDO-1 inhibitory activity in HEK cells (human IDO1/HEK293 cells, kynurenine read-out with Ehrlich reagent, absorbance 490 nm)
Type: cell-based
Design: expressed in transfected cells
Conditions: HEK Human IDO-1 cellular assay
Summary of the method: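 HEK293 cells stably expressing human IDO1 were seeded at 10,000 per well in phenol red-free RPMI with 10% FBS, treated with compound for 20 h at 37 °C. Kynurenine was measured after TCA (0.2% final) and 30 min at 50 °C, using Ehrlich reagent, A490. IC50 normalised to DMSO (0%) and 500 nM reference standard (100%).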

Chain of human IDO1 (P14902 whole entry): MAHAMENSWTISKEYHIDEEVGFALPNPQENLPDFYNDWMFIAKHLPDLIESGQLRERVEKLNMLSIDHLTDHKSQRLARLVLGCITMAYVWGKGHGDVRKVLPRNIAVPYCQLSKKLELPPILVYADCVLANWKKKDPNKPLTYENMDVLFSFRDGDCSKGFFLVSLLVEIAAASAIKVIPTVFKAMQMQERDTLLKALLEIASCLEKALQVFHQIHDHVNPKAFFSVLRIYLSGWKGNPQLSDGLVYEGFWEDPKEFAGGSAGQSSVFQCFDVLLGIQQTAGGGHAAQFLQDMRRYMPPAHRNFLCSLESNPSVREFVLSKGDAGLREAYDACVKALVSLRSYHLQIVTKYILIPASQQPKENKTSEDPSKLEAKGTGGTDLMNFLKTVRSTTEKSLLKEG

## CCOc1ncc(Nc2cc(C(C)(C)CC(=O)O)ccc2N(CC(C)C)CC(C)C)cn1 [Example 148, 3-(4-(diisobutylamino)-3-((2-ethoxypyrimidin-5-yl)amino)phenyl)-3-methyl butanoic acid]
  IC50: < 50 nM

## CCc1cnc(Nc2cc([C@@H](CC)CC(=O)O)ccc2N(CC(C)(C)O)C2CCCCC2)nc1 (single isomer, unassigned) [Example 230]
  IC50: < 50 nM

## CCc1cnc(Nc2cc([C@H](CC)CC(=O)O)ccc2N(CC)C2CCOCC2)nc1 (single isomer, unassigned) [Example 500]
  IC50: > 50 nM

## CC[C@H](CC(=O)O)c1ccc(N(CC)C2CCOCC2)c(NC(=O)Nc2ccc3c(c2)CS(=O)(=O)C3)c1 (single isomer, unassigned) [Example 533]
  IC50: > 50 nM

## CCOc1ncc(Nc2cc(C(C)(C)CC(=O)O)ccc2N(CC)C2CCOCC2)cn1 [Example 159, 3-(3-((2-Ethoxypyrimidin-5-yl)amino)-4-(ethyl(tetrahydro-2H-pyran-4-yl)amino)phenyl)-3-methylbutanoic acid]
  IC50: < 50 nM

## CC[C@@H](CC(=O)O)c1ccc(N2CCOC[C@@H]2C(C)C)c(Nc2ccc3nc(C)sc3c2)c1 (single isomer, unassigned) [Example 80]
  IC50: > 50 nM

## CC[C@@H](CC(=O)O)c1ccc(N(CC)C2CCOCC2)c(Nc2ccc(OCC3CC3)cc2)c1 (single isomer, unassigned) [Example 476]
  IC50: < 5 nM

## CC[C@H](CC(=O)O)c1ccc(N(CC2CC2)CC(C)(C)O)c(Nc2ccc(F)cc2)c1 (single isomer, unassigned) [Example 273]
  IC50: < 50 nM

## CCC(CC(=O)O)c1cc(F)c(N(CC(C)C)CC(C)C)c(NC(=O)Cc2ccc(C)cc2F)c1 (racemic) [Example 1083]
  IC50: < 5 nM

## CCCN(c1ccc([C@@H](COC)CC(=O)O)cc1Nc1ccc2nc(C)sc2c1)C1CCOCC1 (single isomer, unassigned) [Example 560]
  IC50: < 50 nM

## CCN(c1ccc(C(C)(C)CC(=O)O)cc1NC(=O)Nc1ccc(C)cc1)C1CCC(C)(O)CC1 (stereo not shown) [Example 5, 3-(4-(Ethyl(4-hydroxy-4-methylcyclohexyl)amino)-3-(3-(p-tolyl)ureido)phenyl)-3-methylbutanoic acid]
  IC50: < 50 nM

## CCN(c1ccc(C(C)CC(=O)O)cc1Nc1cnc(C)nc1)C1CCOCC1 (single isomer, unassigned) [Example 636, 3-(4-(ethyl(tetrahydro-2H-pyran-4-yl)amino)-3-((2-methylpyrimidin-5-yl)amino)phenyl)butanoic acid]
  IC50: > 50 nM

## CCC(CC(=O)O)c1ccc(N2C[C@@H](C)O[C@@H](C)C2)c(Nc2ccc(C#N)cc2)c1 (single isomer, unassigned) [Example 764]
  IC50: < 50 nM

## CCc1ccc(Nc2cc([C@@H](COC)CC(=O)O)ccc2N(CC)C2CCOCC2)cc1 (single isomer, unassigned) [Example 374]
  IC50: < 5 nM

## CCN(c1ccc([C@@H](COC)CC(=O)O)cc1Nc1ccc2nc(C)sc2c1)C1CCOCC1 (single isomer, unassigned) [Example 377]
  IC50: < 50 nM

## CCC(CC(=O)O)c1cc(F)c(N(CC(C)C)CC(C)C)c(NC(=O)Cc2ccc(C)cc2F)c1 (single isomer, unassigned) [Example 1094 E1]
  IC50: < 5 nM

## CCC(CC(=O)O)c1ccc(N2CCC[C@H]2C(C)(C)F)c(Nc2ccc3nc(C)sc3c2)c1 (single isomer, unassigned) [Example 794]
  IC50: < 50 nM

## CCOc1cnc(Nc2cc(C(C)CC(=O)O)ccc2N(CC)C2CCOCC2)cn1 (single isomer, unassigned) [Example 618, 3-(3-((5-ethoxypyrazin-2-yl)amino)-4-(ethyl (tetrahydro-2H-pyran-4-yl)amino)phenyl)butanoic acid]
  IC50: < 5 nM

## CC[C@H](CC(=O)O)c1ccc(N(CC)C2CCOCC2)c(Nc2ccn3nccc3n2)c1 (single isomer, unassigned) [Example 511]
  IC50: > 50 nM

## CCC(CC(=O)O)c1ccc(N(CC(C)C)C2CCCCC2)c(Nc2ccc(Cl)cc2F)c1 (single isomer, unassigned) [Example 307, 3-(3-((4-chloro-2-fluorophenyl)amino)-4-(cyclohexyl(isobutyl)amino)phenyl)pentanoic acid]
  IC50: < 50 nM

## COCC(CC(=O)O)c1cc(F)c(N(CC(C)C)CC(C)C)c(NC(=O)Cc2ccc(Cl)cc2F)c1 (single isomer, unassigned) [Example 1180, 3-(3-(2-(4-Chloro-2-fluorophenyl)acetamido)-4-(diisobutylamino)-5-fluorophenyl)-4-methoxybutanoic acid]
  IC50: < 5 nM

## COCC(CC(=O)O)c1cc(F)c(N(CC(C)C)CC(C)C)c(Nc2ccc3c(c2)OC(F)(F)O3)c1 (single isomer, unassigned) [Example 927, 3-(3-((2,2-difluorobenzo[d] [1,3]dioxol-5-yl)amino)-4-(diisobutylamino)-5-fluorophenyl)-4-methoxybutanoic acid.]
  IC50: < 50 nM

## CCOc1ncc(Nc2cc([C@H](CC)CC(=O)O)ccc2N(CC(C)(C)O)C2CCOCC2)cn1 (single isomer, unassigned) [Example 202]
  IC50: > 50 nM

## CCC(CC(=O)O)c1cc(F)c(N(CC(C)C)CC(C)C)c(Nc2ccc(Cl)cc2)c1 (single isomer, unassigned) [Example 99, 3-(3-((4-chlorophenyl)amino)-4-(diisobutylamino)-5-fluorophenyl)pentanoic acid]
  IC50: < 5 nM

## CCOc1ccc(NC(=O)Nc2cc(C(CC)CC(=O)O)c(F)cc2N(CC(C)C)C2CCCCC2)cc1 (racemic) [Example 952, (+/−)-3-(4-(Cyclohexyl(isobutyl)amino)-5-(3-(4-ethoxyphenyl)ureido)-2-fluorophenyl)pentanoic acid]
  IC50: < 5 nM

## CC[C@H](CC(=O)O)c1ccc(N(CC(C)C)C2CCS(=O)(=O)CC2)c(NC(=O)Nc2cc(C)on2)c1 (single isomer, unassigned) [Example 213]
  IC50: > 50 nM

## COCC(CC(=O)O)c1ccc(N(CC(C)C)C2CCCCC2)c(NC(=O)Nc2ccc(OC(F)(F)F)cc2)c1 (single isomer, unassigned) [Example 1243, 3-(4-(Cyclohexyl(isobutyl)amino)-3-(3-(4-(trifluoromethoxy)phenyl)ureido)phenyl)-4-methoxybutanoic acid]
  IC50: < 50 nM

## CC(C)CN(CC(C)C)c1c(F)cc(C(CC(=O)O)c2ccccc2)cc1Nc1ccc(Cl)cc1 (single isomer, unassigned) [Example 129, 3-(3-((4-Chlorophenyl)amino)-4-(diisobutylamino)-5-fluorophenyl)-3-phenylpropanoic acid]
  IC50: < 50 nM

## CC(C)(CC(=O)O)c1ccc(N2CCC[C@H]2C(C)(C)O)c(Nc2ccc(F)cc2)c1 [Example 807, (S)-3-(3-((4-Fluorophenyl)amino)-4-(2-(2-hydroxypropan-2-yl)pyrrolidin-1-yl)phenyl)-3-methylbutanoic acid]
  IC50: > 50 nM

## COCC(CC(=O)O)c1cc(F)c(N(CC(C)C)CC(C)C)c(NC(=O)Nc2cc(C)on2)c1 (single isomer, unassigned) [Example 1184, 3-(4-(Diisobutylamino)-3-fluoro-5-(3-(5-methylisoxazol-3-yl)ureido)phenyl)-4-methoxybutanoic acid]
  IC50: < 50 nM

## CCOc1ncc(Nc2cc(C(CC(=O)O)c3ccccc3)ccc2N(CC)C2CCOCC2)cn1 (single isomer, unassigned) [Example 588, 3-(3-((2-Ethoxypyrimidin-5-yl)amino)-4-(ethyl(tetrahydro-2H-pyran-4-yl)amino)phenyl)-3-phenylpropanoic acid]
  IC50: > 50 nM

## CC[C@H](CC(=O)O)c1ccc(N(CC)C2CCCCC2)c(Nc2ccc(OC(F)F)cc2)c1 (single isomer, unassigned) [Example 290]
  IC50: < 5 nM

## CC[C@@H](CC(=O)O)c1ccc(N2CCOC[C@@H]2C(C)C)c(Nc2ccc(F)cc2)c1 (single isomer, unassigned) [Example 84]
  IC50: < 50 nM

## CC[C@H](CC(=O)O)c1ccc(N(CC)C2CCOCC2)c(Nc2ccc(OCC(F)(F)F)cc2)c1 (single isomer, unassigned) [Example 515]
  IC50: < 5 nM

## CC(C)CN(CC(C)C)c1ccc(C(CC(=O)O)c2ccccc2)cc1NC(=O)Nc1ccc(OC(F)(F)F)cc1 (racemic) [Example 1009, (+/−)3-(4-(Diisobutylamino)-3-(3-(4-(trifluoromethoxy)phenyl)ureido)phenyl)-3-phenylpropanoic acid]
  IC50: > 50 nM

## COCC(CC(=O)O)c1ccc(N(CC(C)C)C2CCOCC2)c(NC(=O)Nc2ccc(Cl)cc2F)c1 (single isomer, unassigned) [Example 1217, 3-(3-(3-(4-Chloro-2-fluorophenyl)ureido)-4-(isobutyl(tetrahydro-2H-pyran-4-yl)amino)phenyl)-4-methoxybutanoic acid]
  IC50: < 5 nM

## CCCN(CC1CC1)c1ccc(C(CC)CC(=O)O)cc1Nc1ccc2nc(C)sc2c1 (single isomer, unassigned) [Example 658, 3-(4-((cyclopropylmethyl) (propyl)amino)-3-((2-methylbenzo[d]thiazol-6-yl)amino)phenyl)pentanoic acid]
  IC50: < 50 nM

## CC[C@@H](CC(=O)O)c1ccc(N(CC)C2CCCCC2)c(Nc2ccc(Cl)cc2)c1 (single isomer, unassigned) [Example 279]
  IC50: < 5 nM

## CCN(c1ccc(C(C)CC(=O)O)cc1NC(=O)Nc1ccc(C)cc1)C1CCOCC1 (single isomer, unassigned) [Example 641, 3-(4-(ethyl(tetrahydro-2H-pyran-4-yl)amino)-3-(3-(p-tolyl)ureido)phenyl)butanoic acid]
  IC50: > 50 nM

## CCOc1ncc(Nc2cc([C@H](CC)CC(=O)NS(C)(=O)=O)ccc2N(CC)C2CCOCC2)cn1 [Example 1078, 3-(3-((2-Ethoxypyrimidin-5-yl)amino)-4-(ethyl(tetrahydro-2H-pyran-4-yl)amino)phenyl)-N-(methylsulfonyl)pentanamide]
  IC50: < 50 nM
